This experiment deals with Rh18 complex spheroid viability, percent test/control. The experiment is described as follows: Anticancer human tumor Rh18 cell line growth inhibition [Asc].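 On all read-outs here: spheroids exposed to compound for 7 days.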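 On viability, T/C: 100% = DMSO vehicle control wells.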 The note with it: for viability, T/C: stronger effect = lower value. The procedure: Multicellular complex tumor spheroid response to apoptosis pathway targeting inhibitors Alrizomadlin, Pelcitoclax, and Dasminapant in combination with a variety of drugs and investigational agents in selected tumor cell lines
The MDM2 inhibitor alrizomadlin, the Bcl-2/Bcl-xL inhibitor pelcitoclax, and the IAPs inhibitor dasminapant were evaluated both individually and in combination with standard of care and investigational anticancer small molecules within a complex spheroid model of solid tumors. . Complex spheroids include a stromal component modeled by human endothelial cells (HUVEC) and fibroblasts modeled by human mesenchymal stem cells (MSCs). The concentration ranges selected for each drug and investigational agent were based upon clinically achievable concentrations if the clinical Cmax of the agent was known.
Compounds. The drugs and investigational agents: alrizomadlin (APG-115; NSC831270), pelcitoclax (APG-1252; NSC835773), dasminapant (APG-1387;NSC834197), TAK-243 (NSC785004), copanlisib (NSC809693), olaparib (NSC753686), talazoparib (NSC767125), cobimetinib (NSC 768068), eltanexor (KPT-8602, NSC 794443), abemaciclib (NSC 768073), sotorasib (NSC818433), adagrasib (NSC 831453), MRTX-1133 (NSC 836407), Iadademestat (ORY1001, NSC 806812), and RMC-4630 (NSC839698), were obtained from the NCI Developmental Therapeutics Program Chemical Repository. The FDA-approved anticancer drug set is available from the Developmental Therapeutics Program at https://dtp.cancer.gov/organization/dscb/obtaining/available plates.htm. […] The stock solutions were prepared in dimethyl sulfoxide (DMSO, Sigma-Aldrich, St. Louis, MO, cat. D2650) at 800-fold the tested concentration and stored at -70 degrees C prior to their use. All drugs and investigational agents were tested over a range starting from a high concentration at or near the clinical Cmax and decreasing in half-log increments. If the clinical Cmax for an agent had not been determined, the highest concentration tested was 10 microM.
The patient-derived cancer (PDC) cell lines include five colon adenocarcinomas: 186277-243-T-J2-PDC, 616215-338-R-J1-PDC, 439559-082-T-J2-PDC, 463943-066-T-J2-PDC, and 519858-162-T-J1-PDC; three pancreatic carcinomas: 323965-272-R-J2-PDC, 521955-158-R6-J3-PDC, and 521955-158-R2-J5-PDC; two uterine sarcomas: 327498-152-R-J2-PDC and 993429-296-R-J1-PDC; two rhabdomyosarcomas: 755483-174-R-J1-PDC and 772245-204-R-J1-PDC; two soft tissue sarcomas: 126254-015-R-J1-PDC and 494315-158-R-J1-PDC; two malignant fibrous histiocytomas: 317291-083-R-J1-PDC and 596521-263-R-J1-PDC; two breast carcinomas: 171881-019-R-J1-PDC and 885512-296-R-J2-PDC; and one ovarian carcinoma: 6556581-035-R-J-PDC were obtained from the NCI PDMR, (https://pdmr.cancer.gov). The established cell lines HSSY-2 synovial sarcoma (RRID:CVCL 8719), SYO-1 synovial sarcoma (RRID:CVCL_7146), MPNST malignant peripheral neural sheath tumor were obtained from the Sloan Kettering Institute. The following established cell lines were purchased from the American Type Culture Collection (ATCC, Manassas, VA), Sor the received from the NCI repository:, PANC-1 pancreatic carcinoma (CRL-1469, RRID:CVCL_0480), OVCAR-5 ovarian carcinoma (RRID:CVCL_1628), OVCAR-8 ovarian carcinoma (RRID:CVCL_1629), , MCF-7 breast carcinoma (CRL-12584, RRID:CVCL_0031), MDA-MB-231 breast carcinoma (CRL-12532, RRID:CVCL_0062), NCI-H1876 small cell lung carcinoma (CRL-5902, RRID:CVCL_1503), NCI-H510A small cell lung carcinoma (HTB-184, RRID:CVCL_1565), NCI-H1417 (CRL-5869, RRID:CVCL_1469), and NCI-H196 small cell lung carcinoma (CRL-5823, RRID:CVCL_1509). Dr. Peter Houghton (Greehey Children's Cancer Research Institute, University of Texas Health Science Center, San Antonio, TX) provided Rh-18 rhabdomyosarcoma (RRID:CVCL_1659). Pooled donor human umbilical vein endothelial cells (HUVEC, Lonza, cat. CC-2519) and human mesenchymal stem cells (hMSC, Lonza, cat. PT-2501) were purchased from Lonza (Walkersville, MD).
Cell Culture. […]

pIC50: −log10 of the molar value. “And” between values parts separate entries of the source, which are not always exact repeats. Identical values can stand only once.

Data on 3 compounds can be found in PubChem BioAssay AID1963431 (Molecular Pharmacology Branch, DTP, NCI, 2024).

Broadly, the pIC50 is the negative decadic logarithm of the IC50, by convention in mol/L. Broadly, the viability, T/C is the ratio of treated to control.

As for `O=C(c1ccc(F)c(F)c1Nc1ccc(I)cc1F)N1CC(O)([C@@H]2CCCCN2)C1` + CNC(C)C(=O)NC1CN(S(=O)(=O)c2cccc(S(=O)(=O)N3CCC4CCC(C(=O)NC(c5ccccc5)c5ccccc5)N4C(=O)C(NC(=O)C(C)NC)C3)c2)CCC2CCC(C(=O)NC(c3ccccc3)c3ccccc3)N2C1=O, the pIC50 reads like this: (curve of first compound, second compound 0.01 µM) 7.21; (curve of first compound, second compound 0.0316 µM) 8.50; (curve of first compound, second compound 0.1 µM) > 8.50; (curve of first compound, second compound 0.316 µM) > 8.50; (curve of first compound, second compound 1 µM) > 8.50. For the same compound, the viability, T/C runs as follows: (second compound 0.01 µM, first compound 0.00316 µM) 53.6%; (second compound 0.01 µM, first compound 0.01 µM) 59.4%; (second compound 0.01 µM, first compound 0.0316 µM) 48.5%; (second compound 0.01 µM, first compound 0.1 µM) 45.2%; (second compound 0.01 µM, first compound 0.316 µM) 41.8%; (second compound 0.01 µM, first compound 1 µM) 14.8%. Further, the viability, T/C is, setting by setting: (second compound 0.0316 µM, first compound 0.00316 µM) 50.4%; (second compound 0.0316 µM, first compound 0.01 µM) 46.1%; (second compound 0.0316 µM, first compound 0.0316 µM) 43.6%; (second compound 0.0316 µM, first compound 0.1 µM) 47.7%; (second compound 0.0316 µM, first compound 0.316 µM) 52.1%; (second compound 0.0316 µM, first compound 1 µM) 20.4%. Further, the viability, T/C is 39.7% (second compound 0.1 µM, first compound 0.00316 µM); 40.8% (second compound 0.1 µM, first compound 0.01 µM); 36.1% (second compound 0.1 µM, first compound 0.0316 µM); 43.4% (second compound 0.1 µM, first compound 0.1 µM); 37.9% (second compound 0.1 µM, first compound 0.316 µM); 8.57% (second compound 0.1 µM, first compound 1 µM). For the same compound, the viability, T/C reads like this: (second compound 0.316 µM, first compound 0.00316 µM) 43.8%; (second compound 0.316 µM, first compound 0.01 µM) 47%; (second compound 0.316 µM, first compound 0.0316 µM) 38.2%; (second compound 0.316 µM, first compound 0.1 µM) 42.3%; (second compound 0.316 µM, first compound 0.316 µM) 41.6%; (second compound 0.316 µM, first compound 1 µM) 13.5%. In addition, the viability, T/C is 41.5% (second compound 1 µM, first compound 0.00316 µM); 37.6% (second compound 1 µM, first compound 0.01 µM); 37.3% (second compound 1 µM, first compound 0.0316 µM); 42.9% (second compound 1 µM, first compound 0.1 µM); 28.9% (second compound 1 µM, first compound 0.316 µM); 11.6% (second compound 1 µM, first compound 1 µM).
For `NC(=O)C(=Cn1cnc(-c2cc(C(F)(F)F)cc(C(F)(F)F)c2)n1)c1cncnc1`, the viability, T/C was 85.9% and 82.9% and 85.5% (compound 0.000949 µM); 93.2% and 85.7% and 79.2% (compound 0.003 µM); 92.8% and 63.3% and 67.5% (compound 0.00949 µM); 53.9% and 57.6% and 61% (compound 0.03 µM); 40.6% and 46.8% and 52.6% (compound 0.0949 µM); 32.3% and 31.4% and 34.7% (compound 0.3 µM). Also, under “curve of compound”, the pIC50 is 7.41 and 7.23 and 7.05.
Consider `C=C(F)C(=O)N1CCN(c2nc(OCC3CCCN3C)nc3c2CCN(c2cccc4cccc(Cl)c24)C3)CC1CC#N` (centres undefined), for which the viability, T/C is, setting by setting: (compound 0.0316 µM) 94.1% and 96.8% and 96.1%; (compound 0.1 µM) 98.8% and 93.5% and 87.2%; (compound 0.316 µM) 90.9% and 56.4% and 91.5%; (compound 1 µM) 97.4% and 101% and 93.5%; (compound 3.16 µM) 35.8% and 36.4% and 35.5%; (compound 10 µM) 0.31% and 0.29% and 0.27%. Besides, the pIC50 (curve of compound) was 5.62 and 5.63.
